Patent publication US20250171459A1, “2-METHYL-4',5'-DIHYDROSPIRO[PIPERIDINE-4,7'-THIENO[2,3-C]PYRAN] DERIVATIVES AS INHIBITORS OF APOL1 AND METHODS OF USING SAME” (Vertex Pharmaceuticals Incorporated, priority 2022, published 2025)

Target: T1, APOL1 (Homo sapiens, UniProt O14791)
T1 sequence (O14791 1-398 S342G/I384M): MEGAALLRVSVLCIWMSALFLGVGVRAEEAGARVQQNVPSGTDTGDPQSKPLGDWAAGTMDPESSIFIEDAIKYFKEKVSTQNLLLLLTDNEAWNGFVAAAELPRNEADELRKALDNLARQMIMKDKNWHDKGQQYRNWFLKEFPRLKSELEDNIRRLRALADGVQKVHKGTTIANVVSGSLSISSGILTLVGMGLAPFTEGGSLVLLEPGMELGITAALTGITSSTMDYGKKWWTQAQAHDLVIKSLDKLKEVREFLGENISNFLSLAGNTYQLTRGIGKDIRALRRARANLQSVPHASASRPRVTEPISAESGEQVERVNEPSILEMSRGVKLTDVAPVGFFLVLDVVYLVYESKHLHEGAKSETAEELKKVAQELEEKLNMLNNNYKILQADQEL
Assay: MultiTox-Fluor Multiplex Cytotoxicity Assay in tet-inducible APOL1 T-REx-HEK293 cells (cell rescue, ratio of dead to live cells)
Assay type: cell-based
Details: tet-inducible transgenic APOL1 T-REx-HEK293 cell lines, 50 ng/mL tet, 24 hours; read-out: IP50 (i.e., IC50 for cell proliferation)
Summary of the method: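 T-REx-HEK293 cells with tet-inducible APOL1 were treated with compound (10 μM top, 10-point 3-fold dilution, duplicate) plus 50 ng/mL tetracycline for 24 h at 37° C, in DMEM with 2% tet-free FBS. MultiTox-Fluor protease signals gave a dead/live ratio, normalized to no tet (100% viability) and tet alone (0%).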

Compound | IC50 [nM]
CCc1cc2c(s1)CCO[C@@]21CCN(C[C@H]2C[C@@H](NC(=O)CC3(O)CCCCC3)C2)[C@@H](C)C1 [Compound 303] | < 100
CCc1cc2c(s1)CCO[C@@]21CCN(C[C@H]2C[C@@H](NC(=O)c3cc(C)no3)C2)[C@@H](C)C1 [Compound 304] | < 100
CCc1cc2c(s1)CCO[C@@]21CCN(C[C@H]2C[C@@H](NC(=O)[C@H]3C[C@@H]3C(F)F)C2)[C@@H](C)C1 [Compound 305] | < 100
CCCCC(O)C(=O)N[C@H]1C[C@@H](CN2CC[C@]3(C[C@@H]2C)OCCc2sc(CC)cc23)C1 (some centres unmarked) [Compound 306] | < 100
CCc1cc2c(s1)CCO[C@@]21CCN(C[C@H]2C[C@@H](NC(=O)c3ccc4cn[nH]c4c3)C2)[C@@H](C)C1 [Compound 307] | < 100
CCc1cc2c(s1)CCO[C@@]21CCN(C[C@H]2C[C@@H](NC(=O)c3oncc3C)C2)[C@@H](C)C1 [Compound 308] | < 100
CCc1cc2c(s1)CCO[C@@]21CCN(C[C@H]2C[C@@H](NC(=O)CC3CC3(F)F)C2)[C@@H](C)C1 (some centres unmarked) [Compound 309] | < 100
CCc1cc2c(s1)CCO[C@@]21CCN(C[C@H]2C[C@@H](NC(=O)c3cnn(CC(F)(F)F)c3)C2)[C@@H](C)C1 [Compound 310] | 100 to 500
CCc1cc2c(s1)CCO[C@@]21CCN(C[C@H]2C[C@@H](NC(=O)c3cccc4c3OCCC4)C2)[C@@H](C)C1 [Compound 311] | 100 to 500
CCc1cc2c(s1)CCO[C@@]21CCN(C[C@H]2C[C@@H](NC(=O)C3CCCC(C)(C)C3)C2)[C@@H](C)C1 (some centres unmarked) [Compound 312] | < 100
CCc1cc2c(s1)CCO[C@@]21CCN(C[C@H]2C[C@@H](NC(=O)Cc3cc(C)cc(F)c3)C2)[C@@H](C)C1 [Compound 313] | < 100
CCc1cc2c(s1)CCO[C@@]21CCN(C[C@H]2C[C@@H](NC(=O)CC3CCC(F)(F)CC3)C2)[C@@H](C)C1 [Compound 314] | < 100
CCc1cc2c(s1)CCO[C@@]21CCN(C[C@H]2C[C@@H](NC(=O)C3CCOC(C)(C)C3)C2)[C@@H](C)C1 (some centres unmarked) [Compound 315] | < 100
CCc1cc2c(s1)CCO[C@@]21CCN(C[C@H]2C[C@@H](NC(=O)c3cnc4c(c3)CCC4)C2)[C@@H](C)C1 [Compound 316] | < 100
CCc1cc2c(s1)CCO[C@@]21CCN(C[C@H]2C[C@@H](NC(=O)c3ccn(CC(C)C)n3)C2)[C@@H](C)C1 [Compound 317] | 100 to 500
CCc1cc2c(s1)CCO[C@@]21CCN(C[C@H]2C[C@@H](NC(=O)C3CC(=O)C3(C)C)C2)[C@@H](C)C1 (some centres unmarked) [Compound 318] | < 100
CCc1cc2c(s1)CCO[C@@]21CCN(C[C@H]2C[C@@H](NC(=O)C(O)C(C)C)C2)[C@@H](C)C1 (some centres unmarked) [Compound 319] | < 100
CCc1cc2c(s1)CCO[C@@]21CCN(C[C@H]2C[C@@H](NC(=O)c3cnc(C)s3)C2)[C@@H](C)C1 [Compound 320] | < 100
CCc1cc2c(s1)CCO[C@@]21CCN(C[C@H]2C[C@@H](NC(=O)c3cn(C4CCOCC4)nn3)C2)[C@@H](C)C1 [Compound 321] | 100 to 500
CCc1cc2c(s1)CCO[C@@]21CCN(C[C@H]2C[C@@H](NC(=O)CCN3CCCCC3)C2)[C@@H](C)C1 [Compound 322] | 100 to 500

Compound | IC50 [nM]
CCc1cc2c(s1)CCO[C@@]21CCN(C[C@H]2C[C@@H](NC(=O)C3CC3c3ccc(F)cc3)C2)[C@@H](C)C1 (some centres unmarked) [Compound 323] | < 100
CCc1cc2c(s1)CCO[C@@]21CCN(C[C@H]2C[C@@H](NC(=O)c3ccnc(C)n3)C2)[C@@H](C)C1 [Compound 324] | < 100
CCc1cc2c(s1)CCO[C@@]21CCN(C[C@H]2C[C@@H](NC(=O)C3CCC3(F)F)C2)[C@@H](C)C1 (some centres unmarked) [Compound 325] | < 100
CCc1cc2c(s1)CCO[C@@]21CCN(C[C@H]2C[C@@H](NC(=O)c3cc(C)[nH]n3)C2)[C@@H](C)C1 [Compound 326] | < 100
CCc1cc2c(s1)CCO[C@@]21CCN(C[C@H]2C[C@@H](NC(=O)C3(c4ccc(F)cn4)CC3)C2)[C@@H](C)C1 [Compound 327] | 100 to 500
CCc1cc2c(s1)CCO[C@@]21CCN(C[C@H]2C[C@@H](NC(=O)c3ccc(C)nn3)C2)[C@@H](C)C1 [Compound 328] | 100 to 500
CCc1cc2c(s1)CCO[C@@]21CCN(C[C@H]2C[C@@H](NC(=O)c3cnc(C)nc3)C2)[C@@H](C)C1 [Compound 329] | 100 to 500
CCc1cc2c(s1)CCO[C@@]21CCN(C[C@H]2C[C@@H](NC(=O)C3(O)CCC3)C2)[C@@H](C)C1 [Compound 330] | < 100
CCc1cc2c(s1)CCO[C@@]21CCN(C[C@H]2C[C@@H](NC(=O)C3CC(C(F)(F)F)C3)C2)[C@@H](C)C1 (some centres unmarked) [Compound 331] | 100 to 500
CCc1cc2c(s1)CCO[C@@]21CCN(C[C@H]2C[C@@H](NC(=O)C(O)C3CC3)C2)[C@@H](C)C1 (some centres unmarked) [Compound 333] | < 100
CCc1cc2c(s1)CCO[C@@]21CCN(C[C@H]2C[C@@H](NC(=O)CC#N)C2)[C@@H](C)C1 [Compound 334] | 100 to 500
CCc1cc2c(s1)CCO[C@@]21CCN(C[C@H]2C[C@@H](NC(=O)C3(O)CC3)C2)[C@@H](C)C1 [Compound 335] | < 100
CCc1cc2c(s1)CCO[C@@]21CCN(C[C@H]2C[C@@H](NC(=O)C(C)(C)C#N)C2)[C@@H](C)C1 [Compound 336] | 100 to 500
CCc1cc2c(s1)CCO[C@@]21CCN(C[C@H]2C[C@@H](NC(=O)CN3CCc4ccccc43)C2)[C@@H](C)C1 [Compound 337] | < 100
CCc1cc2c(s1)CCO[C@@]21CCN(C[C@H]2C[C@@H](NC(=O)CC3CC(F)(F)C3)C2)[C@@H](C)C1 [Compound 338] | < 100
CCc1cc2c(s1)CCO[C@@]21CCN(C[C@H]2C[C@@H](NC(=O)C(O)C(F)(F)F)C2)[C@@H](C)C1 (some centres unmarked) [Compound 339] | < 100
CCc1cc2c(s1)CCO[C@@]21CCN(C[C@H]2C[C@@H](NC(=O)c3ccncc3C)C2)[C@@H](C)C1 [Compound 340] | < 100
CCc1cc2c(s1)CCO[C@@]21CCN(C[C@H]2C[C@@H](NC(=O)C(C)S(C)(=O)=O)C2)[C@@H](C)C1 (some centres unmarked) [Compound 341] | < 100
CCc1cc2c(s1)CCO[C@@]21CCN(C[C@H]2C[C@@H](NC(=O)CS(=O)(=O)NC)C2)[C@@H](C)C1 [Compound 342] | < 100
CCc1cc2c(s1)CCO[C@@]21CCN(C[C@H]2C[C@@H](NC(=O)CS(C)(=O)=O)C2)[C@@H](C)C1 [Compound 343] | < 100

Compound | IC50 [nM]
CCc1cc2c(s1)CCO[C@@]21CCN(C[C@H]2C[C@@H](NC(=O)C3CC(C)(O)C3)C2)[C@@H](C)C1 (some centres unmarked) [Compound 344] | < 100
CCc1cc2c(s1)CCO[C@@]21CCN(C[C@H]2C[C@@H](NC(=O)c3ncccc3O)C2)[C@@H](C)C1 [Compound 345] | 100 to 500
CCc1cc2c(s1)CCO[C@@]21CCN(C[C@H]2C[C@@H](NC(=O)CC(C)(C)O)C2)[C@@H](C)C1 [Compound 346] | < 100
CCc1cc2c(s1)CCO[C@@]21CCN(C[C@H]2C[C@@H](NC(=O)c3nnc(C)o3)C2)[C@@H](C)C1 [Compound 347] | 100 to 500
CCc1cc2c(s1)CCO[C@@]21CCN(C[C@H]2C[C@@H](NC(=O)COC)C2)[C@@H](C)C1 [Compound 348] | 100 to 500
CCc1cc2c(s1)CCO[C@@]21CCN(C[C@H]2C[C@@H](NC(=O)c3ccc(=O)[nH]n3)C2)[C@@H](C)C1 [Compound 349] | < 100
CCc1cc2c(s1)CCO[C@@]21CCN(C[C@H]2C[C@@H](NC(=O)C3(C(N)=O)CC3)C2)[C@@H](C)C1 [Compound 350] | 100 to 500
CCc1cc2c(s1)CCO[C@@]21CCN(C[C@H]2C[C@@H](NC(=O)CO)C2)[C@@H](C)C1 [Compound 351] | 100 to 500
CCc1cc2c(s1)CCO[C@@]21CCN(C[C@H]2C[C@@H](NC(=O)CC3CS(=O)(=O)C3)C2)[C@@H](C)C1 [Compound 352] | < 100
CCc1cc2c(s1)CCO[C@@]21CCN(C[C@H]2C[C@@H](NC(=O)CNS(=O)(=O)CC)C2)[C@@H](C)C1 [Compound 353] | < 100
CCc1cc2c(s1)CCO[C@@]21CCN(C[C@H]2C[C@@H](NC(=O)Cn3cncn3)C2)[C@@H](C)C1 [Compound 354] | 100 to 500
CCc1cc2c(s1)CCO[C@@]21CCN(C[C@H]2C[C@@H](NC(=O)C3CCN(C(C)=O)CC3)C2)[C@@H](C)C1 [Compound 355] | < 100
CCc1cc2c(s1)CCO[C@@]21CCN(C[C@H]2C[C@@H](NC(=O)CCS(C)(=O)=O)C2)[C@@H](C)C1 [Compound 356] | < 100
CCc1cc2c(s1)CCO[C@@]21CCN(C[C@H]2C[C@@H](NC(=O)C3(O)CC(O)C3)C2)[C@@H](C)C1 (some centres unmarked) [Compound 357] | < 100
CCc1cc2c(s1)CCO[C@@]21CCN(C[C@H]2C[C@@H](NC(=O)c3ccc4[nH]nnc4c3)C2)[C@@H](C)C1 [Compound 358] | < 100
CCc1cc2c(s1)CCO[C@@]21CCN(C[C@H]2C[C@@H](NC(=O)C3(C)COC3)C2)[C@@H](C)C1 [Compound 359] | 100 to 500
CCc1cc2c(s1)CCO[C@@]21CCN(C[C@H]2C[C@@H](NC(=O)C(C)(C)N)C2)[C@@H](C)C1 [Compound 360] | 100 to 500
CCc1cc2c(s1)CCO[C@@]21CCN(C[C@H]2C[C@@H](NC(=O)C3CNC(=O)O3)C2)[C@@H](C)C1 (some centres unmarked) [Compound 361] | 100 to 500
CCc1cc2c(s1)CCO[C@@]21CCN(C[C@H]2C[C@@H](NC(=O)C3CC(=O)N(C)C3)C2)[C@@H](C)C1 (some centres unmarked) [Compound 362] | 100 to 500
